Results on 8 molecules are retold here after ChEMBL document CHEMBL1201862, “PubChem BioAssay data set” (2004).

Some test systems named below: SNB-75; TK-10; MDA-N; OVCAR-5; HOP-92; SNB-19; DU-145; HCT-116; HCT-15; SK-MEL-28; A498; U-251; NCI-H23; UACC-62; NCI-H522; UO-31; OVCAR-8; OVCAR-4; UACC-257.
Experiment in all cases: DTP human tumour cell line panel, 48 h

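Results reflect a 48-hour exposure of cells in 96-well plates to compound at five concentrations. The concentration for 50% growth inhibition is given as GI50.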 Calls of active or inactive are those of the source. Rule as the data show it: active = GI50 up to about 1.1 µM and inactive = higher. A value given as a limit tells only on which side of the number the result lay.

By GI50 is commonly meant the concentration at which growth is held to half of that of the control.

In the case of `CCOC(=O)CCC(NC(=O)c1ccc(CNc2nc3ccccc3nc2C(=O)OCC)cc1)C(=O)OCC` (centres undefined), the GI50 is > 100 µM (inactive) with SNB-75; > 100 µM (inactive) with TK-10; > 100 µM (inactive) in the assay on MDA-N; > 100 µM (inactive) in the assay with OVCAR-5; > 100 µM (inactive) in the assay with HOP-92; 23.7 µM (inactive) with SNB-19. Also, the GI50 in the assay with DU-145 is > 100 µM (inactive); with HCT-116, > 100 µM (inactive); with HCT-15 it was above 100 µM; in the assay with SK-MEL-28, > 100 µM (inactive); in the assay on A498 it was > 100 µM (inactive); in the assay with U-251, 21.8 µM (inactive). Besides, the GI50 with NCI-H23 was > 100 µM (inactive); in the assay with UACC-62 it was > 100 µM (inactive); in the assay with NCI-H522, > 100 µM (inactive); with UO-31 it was 44.1 µM (inactive); in the assay with OVCAR-8 it was > 100 µM (inactive).
On to `CC(=O)C(CN1CCOCC1)C(c1ccccc1)c1c(O)c2ccccc2oc1=O` (centres undefined), for which the GI50 with SNB-75 is > 100 µM (inactive); in the assay on TK-10, > 100 µM (inactive); in the assay on MDA-N it was > 100 µM (inactive); in the assay with OVCAR-5, > 100 µM (inactive); in the assay on HOP-92 it was 32 µM (inactive); in the assay with SNB-19, > 100 µM (inactive). The GI50 was > 100 µM (inactive) in the assay on DU-145; > 100 µM (inactive) in the assay with HCT-116; above 100 µM with HCT-15; > 100 µM (inactive) in the assay with SK-MEL-28; > 100 µM (inactive) with A498; > 100 µM (inactive) in the assay on OVCAR-4. Also, the GI50 in the assay with UACC-257, in the assay on U-251, in the assay on NCI-H23, with UACC-62, with NCI-H522 and in the assay with UO-31 was > 100 µM (inactive) in each case. For the same molecule, the GI50 in the assay with OVCAR-8 is > 100 µM (inactive).
Take `CC(C)(C)C(=O)C(C(=O)C(C)(C)C)C(=O)C(C)(C)C`: the GI50 in the assay with SNB-75 is 71 µM (inactive); with TK-10, > 100 µM (inactive); in the assay on MDA-N, > 100 µM (inactive); in the assay with OVCAR-5 it was > 100 µM (inactive); in the assay with HOP-92, > 100 µM (inactive); in the assay with SNB-19 it was > 100 µM (inactive). Further, the GI50 with DU-145 is > 100 µM (inactive); in the assay on HCT-116, > 100 µM (inactive); in the assay with HCT-15, above 100 µM; in the assay on SK-MEL-28, > 100 µM (inactive); in the assay with A498, > 100 µM (inactive); in the assay on OVCAR-4 it was > 100 µM (inactive). Besides, the GI50 in the assay with UACC-257, in the assay with U-251, in the assay on NCI-H23, with NCI-H522, with UO-31 and with OVCAR-8 was > 100 µM (inactive) in each case.
As for `CN(N)C(=O)NCCCl`, the GI50 in the assay on SNB-75, in the assay on TK-10, in the assay with MDA-N, in the assay with OVCAR-5, with HOP-92 and in the assay with SNB-19 was > 100 µM (inactive) throughout. Further, the GI50 was > 100 µM (inactive) in the assay on DU-145; > 100 µM (inactive) with HCT-116; above 100 µM with HCT-15; > 100 µM (inactive) in the assay on SK-MEL-28; > 100 µM (inactive) in the assay with A498; > 100 µM (inactive) with OVCAR-4. Besides, the GI50 with UACC-257, in the assay with U-251, with NCI-H23, with UACC-62, with NCI-H522 and in the assay with UO-31 was > 100 µM (inactive) in each case.
Consider `O=C(O)c1ccccc1/C=N\N=C1NCCN1`, for which the GI50 in the assay with SNB-75, in the assay with TK-10, in the assay with MDA-N, in the assay with OVCAR-5, with HOP-92 and with SNB-19 was > 100 µM (inactive) throughout. Also, the GI50 was > 100 µM (inactive) in the assay with DU-145; > 100 µM (inactive) in the assay with HCT-116; above 100 µM in the assay with HCT-15; > 100 µM (inactive) in the assay with A498; > 100 µM (inactive) with OVCAR-4; > 100 µM (inactive) in the assay on UACC-257. Further, the GI50 with U-251 is > 100 µM (inactive); in the assay with NCI-H23 it was > 100 µM (inactive); in the assay with UACC-62, > 100 µM (inactive); in the assay with NCI-H522 it was > 100 µM (inactive); in the assay with UO-31, 40.9 µM (inactive); in the assay on OVCAR-8 it was > 100 µM (inactive).
Consider `O=c1c2cc(S(=O)(=O)O)ccc2nc(COc2ccc(Oc3ccc(Cl)cc3Cl)cc2)n1C(=S)Nc1ccc(Cl)cc1`, for which the GI50 in the assay with SNB-75 is 18.8 µM (inactive); with TK-10, 18.3 µM (inactive); in the assay on MDA-N it was 22.1 µM (inactive); in the assay with OVCAR-5, 19.8 µM (inactive); in the assay on HOP-92, 18.1 µM (inactive); in the assay on SNB-19, 33.4 µM (inactive). Moreover, the GI50 was 27.7 µM (inactive) in the assay with DU-145; 22.5 µM (inactive) in the assay with HCT-116; 21 µM with HCT-15; 22.5 µM (inactive) with A498; 23.9 µM (inactive) with OVCAR-4; 25.4 µM (inactive) in the assay on UACC-257. Also, the GI50 with U-251 was 17.2 µM (inactive); in the assay on NCI-H23 it was 18.7 µM (inactive); with UACC-62 it was 15.8 µM (inactive); in the assay with NCI-H522, 17.6 µM (inactive); with UO-31, 15.8 µM (inactive); in the assay on OVCAR-8, 21.6 µM (inactive).
Consider `CCCCC(=O)Nc1ccc2c(C)cc(-c3ccc(-c4cc(-c5ccc(C)cc5)cc(-c5ccc(-c6cc(C)c7ccc(NC(=O)CCCC)nc7n6)cc5)n4)cc3)nc2n1`, for which the GI50 with SNB-75 was > 100 µM (inactive); with TK-10, > 100 µM (inactive); with MDA-N it was > 100 µM (inactive); in the assay on OVCAR-5 it was > 100 µM (inactive); in the assay on HOP-92, 78.9 µM (inactive); with SNB-19, > 100 µM (inactive). For the same molecule, the GI50 with DU-145 is > 100 µM (inactive); in the assay on HCT-116, > 100 µM (inactive); in the assay on HCT-15, above 100 µM; with SK-MEL-28, > 100 µM (inactive); in the assay with A498, > 100 µM (inactive); in the assay on OVCAR-4, > 100 µM (inactive). The GI50 in the assay on UACC-257, with U-251, in the assay on NCI-H23, with UACC-62, with NCI-H522 and in the assay with UO-31 was > 100 µM (inactive) in each case.
As to `C[C@@H](CC(O)C(O)C(C)(C)O)C1CCC23CC12CCC1[C@@]2(C)CCC(=O)C(C)(C)C2CC(OC2OC(CO)C(O)C(O)C2O)[C@]13C` (some centres undefined), the GI50 in the assay on SNB-75, in the assay on TK-10, in the assay on MDA-N, with OVCAR-5, with HOP-92 and in the assay on SNB-19 was > 10 µM (inactive) throughout. Moreover, the GI50 in the assay with DU-145 is > 10 µM (inactive); with HCT-116 it was > 10 µM (inactive); in the assay with HCT-15 it was above 10 µM; in the assay on SK-MEL-28, > 10 µM (inactive); with A498 it was > 10 µM (inactive); with OVCAR-4 it was > 10 µM (inactive). For the same molecule, the GI50 in the assay on U-251, in the assay with NCI-H23, in the assay on UACC-62, with NCI-H522, with UO-31 and in the assay on OVCAR-8 was > 10 µM (inactive) throughout.
